± gives the standard deviation of the averaged measurements.
What was measured:
Assay in all cases: level (log10 ratio to DMSO vehicle control); higher = higher biomarker level / cell amount than vehicle control
Details in all cases: in DMSO
[1] = compound: C=C(C)C(=O)OCC(F)(F)C(F)(F)C(F)(F)C(F)(F)C(F)(F)C(F)(F)C(F)(F)F
Description: (§1)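 BioMAP Diversity Plus panel of 12 human primary cell co-culture systems (3C, 4H, LPS, SAg, BT, BF4T, BE3C, CASM3C, HDF3CGF, KF3CT, MyoF, Mphg). Compounds were added 1 h before stimulation and left for 24 h (MyoF 48 h; BT 72 h for soluble read-outs or 6 d for IgG). Biomarkers were read by ELISA, cytotoxicity by SRB, PBMC viability and proliferation by Alamar Blue. Each well value was divided by the mean of 8 DMSO control wells on the same plate and log10 transformed; duplicate blinded samples were tested at 4 concentrations.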

[2] = compound: O=C(O)CCC(F)(F)C(F)(F)C(F)(F)C(F)(F)C(F)(F)F [2H,2H,3H,3H-Perfluorooctanoic acid]
Description: as §1

[3] = compound: O=S(=O)(O)C(F)(F)C(F)(F)C(F)(F)C(F)(F)F [Perfluorobutanesulfonic acid]
Description: as §1

| Test System | level (log10) ([1]; 6700 nM) | level (log10) ([1]; 20000 nM) | level (log10) ([2]; 6700 nM) | level (log10) ([2]; 20000 nM) | level (log10) ([2]; 60000 nM) | level (log10) ([3]; 6700 nM) | level (log10) ([3]; 20000 nM) | level (log10) ([3]; 60000 nM) |
| --- | --- | --- | --- | --- | --- | --- | --- | --- |
| 3C:CD54/ICAM-1 | 0.019 ± 0.028 | 0.014 ± 0.018 | 0.0005 ± 0.0064 | -0.0055 ± 0.018 | -0.0175 ± 0.022 | -0.008 ± 0.0014 | 0.0035 ± 0.0021 | 0.0015 ± 0.0021 |
| lMphg:CD40 | -0.0265 ± 0.0064 | -0.025 ± 0.0042 | -0.0205 ± 0.039 | -0.0235 ± 0.04 | -0.05 ± 0.041 | -0.0015 ± 0.0064 | -0.0065 ± 0.0021 | 0.009 ± 0.0014 |
| lMphg:SRB | -0.012 ± 0.016 | -0.015 ± 0.016 | -0.0025 ± 0.0035 | 0.001 ± 0.0014 | 0.007 ± 0.0085 | 0.002 ± 0.013 | -0.0155 ± 0.011 | -0.0155 ± 0.0064 |
| HDF3CGF:CD106/VCAM-1 | -0.01 ± 0.037 | -0.017 ± 0.11 | 0.046 ± 0.082 | 0.044 ± 0.088 | 0.0435 ± 0.071 | -0.02 ± 0.013 | -0.01 ± 0.0014 | -0.025 ± 0.058 |
| HDF3CGF:SRB | 0.0255 ± 0.11 | 0.044 ± 0.12 | -0.006 ± 0.034 | 0.0185 ± 0.04 | 0.077 ± 0.028 | 0.018 ± 0.03 | 0.023 ± 0.013 | 0.004 ± 0.033 |
| KF3CT:TIMP-2 | 0.0115 ± 0.018 | -0.0195 ± 0.0064 | -0.011 | -0.02 ± 0.024 | 0.015 ± 0.0099 | -0.0265 ± 0.005 | -0.0045 ± 0.029 | -0.0135 ± 0.022 |
| lMphg:CCL2/MCP-1 | -0.009 ± 0.021 | 0.008 ± 0.02 | 0.007 ± 0.016 | -0.0115 ± 0.005 | -0.01 | 0.0105 ± 0.0021 | 0.0105 ± 0.0078 | 0.0145 ± 0.025 |
| MyoF:alpha-SM Actin | 0.0085 ± 0.022 | -0.0005 ± 0.0092 | 0.048 ± 0.024 | 0.017 ± 0.013 | 0.0205 ± 0.061 | -0.016 ± 0.0099 | -0.0265 ± 0.0078 | -0.0195 ± 0.005 |
| CASM3C:CCL2/MCP-1 | -0.015 ± 0.0042 | 0.007 ± 0.018 | -0.002 ± 0.014 | 0.002 ± 0.0042 | 0.013 ± 0.028 | -0.0085 ± 0.0092 | -0.0125 ± 0.035 | -0.0045 ± 0.021 |
| lMphg:SRB-Mphg | 0.0095 ± 0.052 | 0.0365 ± 0.03 | 0.0115 ± 0.0035 | 0.0065 ± 0.015 | 0.007 ± 0.017 | 0.01 ± 0.018 | 0.0045 ± 0.015 | -0.0005 ± 0.012 |
| BE3C:MMP-1 | 0.02 ± 0.021 | 0.0655 ± 0.064 | 0.019 ± 0.013 | 0.0225 ± 0.028 | 0.072 ± 0.048 | 0.0055 ± 0.028 | -0.011 ± 0.0057 | 0.019 ± 0.013 |
| HDF3CGF:CXCL9/MIG | 0.02 ± 0.024 | 0.0165 ± 0.015 | -0.01 ± 0.047 | -0.019 ± 0.047 | -0.036 ± 0.044 | -0.01 ± 0.0085 | -0.0145 ± 0.0092 | -0.0035 ± 0.005 |
| lMphg:M-CSF | -0.0185 ± 0.0035 | -0.0025 ± 0.033 | -0.0155 ± 0.0021 | 0.0035 ± 0.0064 | -0.046 ± 0.014 | 0.021 ± 0.028 | -0.0045 ± 0.074 | -0.0045 ± 0.07 |
| MyoF:bFGF | 0.005 ± 0.016 | 0.015 ± 0.025 | -0.013 ± 0.017 | -0.011 ± 0.0085 | -0.008 ± 0.021 | 0.0065 ± 0.013 | 0.0105 ± 0.018 | -0.0065 ± 0.0064 |
| HDF3CGF:CXCL8/IL-8 | -0.0015 ± 0.016 | 0.0045 ± 0.00071 | -0.014 ± 0.014 | -0.009 ± 0.014 | -0.007 ± 0.025 | 0.0025 ± 0.0078 | -0.002 ± 0.0057 | -0.0025 ± 0.0021 |
| KF3CT:CXCL8/IL-8 | -0.0025 ± 0.019 | 0.009 ± 0.033 | -0.017 ± 0.042 | -0.009 ± 0.028 | -0.0295 ± 0.0021 | -0.031 ± 0.02 | -0.002 ± 0.0042 | 0.004 ± 0.0071 |
| KF3CT:CD54/ICAM-1 | 0.0045 ± 0.019 | -0.018 ± 0.031 | -0.016 ± 0.0085 | -0.0205 ± 0.018 | -0.0285 ± 0.023 | 0.0015 ± 0.029 | 0.0225 ± 0.012 | 0.0005 ± 0.00071 |
| HDF3CGF:Collagen III | -0.004 ± 0.0042 | -0.0005 ± 0.0078 | -0.064 ± 0.055 | -0.076 ± 0.033 | -0.039 ± 0.061 | -0.013 ± 0.048 | 0.035 ± 0.016 | 0.047 ± 0.016 |
| MyoF:Collagen I | 0.01 | -0.007 ± 0.0071 | 0.013 ± 0.0014 | -0.0005 ± 0.0064 | 0.0055 ± 0.018 | -0.017 ± 0.023 | -0.004 ± 0.0014 | -0.0235 ± 0.0064 |
| CASM3C:CXCL9/MIG | 0.0005 ± 0.011 | 0.014 ± 0.014 | -0.0185 ± 0.00071 | -0.0285 ± 0.0092 | 0.0045 ± 0.042 | 0.01 ± 0.028 | 0.0135 ± 0.035 | 0.0465 ± 0.0092 |
| CASM3C:LDLR | -0.0135 ± 0.0021 | 0.03 ± 0.024 | 0.0005 ± 0.0021 | -0.001 ± 0.018 | 0.0095 ± 0.047 | -0.0305 ± 0.0035 | -0.0255 ± 0.025 | -0.0345 ± 0.053 |
| lMphg:IL-1alpha | -0.0265 ± 0.029 | 0.005 ± 0.13 | 0.03 ± 0.028 | 0.0675 ± 0.071 | 0.129 ± 0.067 | 0.0315 ± 0.016 | -0.0055 ± 0.056 | 0.034 ± 0.031 |
| CASM3C:HLA-DR | -0.015 ± 0.017 | -0.0125 ± 0.0021 | 0.004 ± 0.0057 | -0.026 ± 0.021 | -0.014 | -0.0085 ± 0.0035 | -0.0075 ± 0.00071 | -0.0025 ± 0.0078 |
| KF3CT:PAI-I | -0.004 ± 0.02 | 0.006 ± 0.0014 | -0.0015 ± 0.00071 | -0.0065 ± 0.0021 | -0.017 ± 0.0085 | -0.014 ± 0.048 | 0.003 ± 0.0099 | -0.007 ± 0.027 |
| CASM3C:M-CSF | -0.0155 ± 0.0092 | 0.0165 ± 0.03 | -0.006 ± 0.0028 | -0.0035 ± 0.0064 | 0.0185 ± 0.06 | -0.007 ± 0.031 | -0.002 | 0.0025 ± 0.011 |
| HDF3CGF:CD54/ICAM-1 | -0.008 ± 0.0085 | -0.01 ± 0.014 | -0.0095 ± 0.0064 | -0.0215 ± 0.019 | -0.036 ± 0.023 | -0.009 ± 0.016 | -0.0145 ± 0.0021 | 0.003 ± 0.011 |
| MyoF:CD106/VCAM-1 | 0.0035 ± 0.015 | 0.019 ± 0.0099 | -0.0015 ± 0.019 | -0.0115 ± 0.021 | 0.0005 ± 0.012 | -0.004 ± 0.0028 | 0.0085 ± 0.0021 | 0.0155 ± 0.016 |
| MyoF:PAI-I | 0.0005 ± 0.011 | 0.005 ± 0.0042 | -0.009 ± 0.0028 | -0.0155 ± 0.005 | -0.0025 ± 0.005 | -0.011 ± 0.013 | 0.0065 ± 0.0078 | 0.0005 ± 0.0064 |
| CASM3C:CD87/uPAR | 0.0005 ± 0.0035 | 0.003 ± 0.023 | -0.008 ± 0.013 | -0.011 ± 0.0071 | -0.0305 ± 0.0092 | -0.0275 ± 0.03 | -0.047 ± 0.045 | -0.0575 ± 0.0092 |
